Results published in patent US12404244B2, “Pan-KIT kinase inhibitor having quinoline structure and application thereof” (Tarapeutics Science Inc., priority 2018, dated 2025).

Tests used:
Assay type in all cases: cell-based
[1] = test system: TEL-KIT/S709F-BaF3; assay: Proliferation of TEL-KIT/S709F-BaF3 cells (CCK-8); details: Mus musculus; 72 hours, CCK-8; read-out: GI50 TEL-KIT/S709F-BaF3
Excerpt: (§1) Compounds as provided herein were further evaluated for their inhibitory effects on proliferation of cancer cells by testing their effects on growth of cancer cells. In this example the following cells were used: primary mouse B cells BaF3 (purchased from ATCC), GIST-T1 cells of the human gastrointestinal stromal tumor cell line (expressing wild-type KIT gene) (purchased from Cosmo Bio Co., Ltd. (Japan)). The present lab further constructed and used the following: mouse Tel-Kit-BaF3 (stably expressing KIT wild-type kinase), mouse Tel-Kit/T670I-BaF3 (stably expressing KIT T670I mutant kinase), mouse Tel-Kit/V559A-BaF3 (stably expressing KIT V559A mutant kinase), mouse Tel-Kit/V559D-BaF3 (stably expressing KIT V559D mutant kinase), mouse Tel-Kit/V559G-BaF3 (stably expressing KIT V559G mutant kinase), mouse Tel-Kit/V560D-BaF3 (stably expressing KIT V560D mutant kinase), mouse Tel-Kit/L576P-BaF3 (stably expressing KIT L576P mutant kinase), mouse Tel-Kit/V654A-BaF3 (stably expressing KIT V654A mutant kinase), mouse Tel-Kit/V654A/V559D-BaF3 (stably expressing KIT V654A V559D mutant kinase), mouse Tel-Kit/T670E-BaF3 (stably expressing KIT T670E mutant kinase), mouse Tel-Kit/T670I/V559D-BaF3 (stably expressing KIT T670I V559D mutant kinase), mouse Tel-Kit/S709F-BaF3 (stably expressing KIT S709F mutant kinase), mouse Tel-Kit/D816E-BaF3 (stably expressing KIT D816E mutant kinase), mouse Tel-Kit/D816H-BaF3 (stably expressing KIT D816H mutant kinase), mouse Tel-Kit/D820E-BaF3 (stably expressing KIT D820E mutant kinase), mouse Tel-Kit/D820G-BaF3 (stably expressing KIT D820G mutant kinase), mouse Tel-Kit/D820Y-BaF3 (stably expressing KIT D820Y mutant kinase), mouse Tel-Kit/N822K-BaF3 (stably expressing KIT N822K mutant kinase), mouse Tel-Kit/Y823D-BaF3 (stably expressing KIT Y823D mutant kinase), mouse Tel-Kit/A829P-BaF3 (stably expressing KIT A829P mutant kinase), GIST-T1-T670I cells of the human gastrointestinal stromal tumor cell line (expressing KIT-T670I mutant gene). The above cell lines were constructed by: amplifying respectively the sequences of human KIT and various mutant kinase regions of KIT via PCR, inserting the fragments respectively into MSCV-Puro vectors having a N-terminal TEL fragment and/or a NPM fragment and/or a TPR fragment (purchased from Clontech), transfecting mouse BaF3 cells with the vectors by means of retrovirus to obtain stably transfected cells, removing the growth factor IL-3, and thereby eventually obtaining cell lines that depend on the transferred protein KIT or various mutants of KIT. […]

[2] = test system: TEL-KIT/D816E-BaF3; assay: Proliferation of TEL-KIT/D816E-BaF3 cells (CCK-8); details: Mus musculus; 72 hours, CCK-8; read-out: GI50 TEL-KIT/D816E-BaF3
Excerpt: as §1

[3] = test system: TEL-KIT/D816H-BaF3; assay: Proliferation of TEL-KIT/D816H-BaF3 cells (CCK-8); details: Mus musculus; 72 hours, CCK-8; read-out: GI50 TEL-KIT/D816H-BaF3
Excerpt: as §1

[4] = test system: TEL-KIT/D820E-BaF3; assay: Proliferation of TEL-KIT/D820E-BaF3 cells (CCK-8); details: Mus musculus; 72 hours, CCK-8; read-out: GI50 TEL-KIT/D820E-BaF3
Excerpt: as §1

[5] = test system: TEL-KIT/A829P-BaF3; assay: Proliferation of TEL-KIT/A829P-BaF3 cells (CCK-8); details: Mus musculus; 72 hours, CCK-8; read-out: GI50 TEL-KIT/A829P-BaF3
Excerpt: as §1

[6] = test system: GIST-T1; assay: Proliferation of GIST-T1 cells (CCK-8); details: Homo sapiens, GISTT1; 72 hours, CCK-8; read-out: GI50 GIST-T1
Excerpt: as §1, with “gene).” for “gene). The above cell lines were constructed by: amplifying respectively the sequences of human KIT and various mutant kinase regions of KIT via PCR, inserting the fragments respectively into MSCV-Puro vectors having a N-terminal TEL fragment and/or a NPM fragment and/or a TPR fragment (purchased from Clontech), transfecting mouse BaF3 cells with the vectors by means of retrovirus to obtain stably transfected cells, removing the growth factor IL-3, and thereby eventually obtaining cell lines that depend on the transferred protein KIT or various mutants of KIT.”
(§2) The cells after incubation were detected using CCK-8 (purchased from MedChem Express, Shanghai, China) cell viability assay kit (CCK-8 may be reduced by dehydrogenase in living cells to a highly water-soluble yellow formazan product, and the amount of the resultant formazan is proportional to the number of living cells), the number of living cells were quantified with a microplate reader, and GI50 of the compounds and the control compounds were calculated (the results shown in Table 2 and Table 3).

[7] = test system: GIST-T1/T670I; assay: Proliferation of GIST-T1/T670I cells (CCK-8); details: Homo sapiens, GISTT1; 72 hours, CCK-8; read-out: GI50 GIST-T1/T670I
Excerpt: as §1, with “gene).” for “gene). The above cell lines were constructed by: amplifying respectively the sequences of human KIT and various mutant kinase regions of KIT via PCR, inserting the fragments respectively into MSCV-Puro vectors having a N-terminal TEL fragment and/or a NPM fragment and/or a TPR fragment (purchased from Clontech), transfecting mouse BaF3 cells with the vectors by means of retrovirus to obtain stably transfected cells, removing the growth factor IL-3, and thereby eventually obtaining cell lines that depend on the transferred protein KIT or various mutants of KIT.”
as §2

Which results are given for CCN(CC)CCNC(=O)c1c(C)[nH]c(/C=C2\C(=O)Nc3ccc(F)cc32)c1C [Sunitinib, reference compound]?
GI50 [1]: 28 nM; GI50 [2]: 59 nM; GI50 [3]: 315 nM; GI50 [4]: 93 nM; GI50 [5]: 180 nM; GI50 [6]: 11 nM; GI50 [7]: 4 nM
